Test results reported in US11180483B2, “Substituted reverse pyrimidine Bmi-1 inhibitors” (PTC Therapeutics, Inc., priority 2012, dated 2021).

System: Bmi-1
Test: Sandwich ELISA Assay (Bmi-1 ELISA) in HT-1080 cells
Format: cell-based
Procedure, shortened: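 HT-1080 cells exposed to compound in 0.5% final DMSO for 40-48 h at 37 °C, then lysed. Bmi-1 was quantified by sandwich ELISA: mouse monoclonal capture, rabbit anti-Bmi-1 detection, HRP anti-rabbit and TMB. Read at OD450 (OD570 reference) against a recombinant GST-Bmi-1 standard curve (0-8000 pg/mL).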

SMILES | EC50 [nM]
Nc1cc(Nc2ccc(C(F)(F)F)cc2)nc(-n2c(C3CC3)nc3ncc(F)cc32)n1 [Cpd 92, 2-(2-cyclopropyl-6-fluoro-1H-imidazo[4,5-b]pyridin-1-yl)-N-[4-(trifluoromethyl)phenyl]pyrimidine-4,6-diamine] | 10 to 100
Cc1nc2ccccc2n1-c1nc(N)cc(Nc2ccc(Br)cc2)n1 [Cpd 212, N-(4-bromophenyl)-2-(2-methyl-1H-benzimidazol-1-yl)pyrimidine-4,6-diamine] | 10 to 100
COc1ccc(Nc2nc(-n3c(C)nc4cc(F)c(F)cc43)nc(N)c2F)cc1 [Cpd 214, 2-(5,6-difluoro-2-methyl-1H-benzimidazol-1-yl)-5-fluoro-N-(4-methoxyphenyl)pyrimidine-4,6-diamine] | 10 to 100
CCc1nc2ccccc2n1-c1nc(N)c(F)c(Nc2ccc(C(F)(F)F)cc2)n1 [Cpd 107, 2-(2-ethyl-1H-benzimidazol-1-yl)-5-fluoro-N-[4-(trifluoromethyl)phenyl]pyrimidine-4,6-diamine] | 10 to 100
Cc1nc2ccc(F)cc2n1-c1nc(N)c(F)c(Nc2ccc(Cl)cc2)n1 [Cpd 185, N-(4-chlorophenyl)-5-fluoro-2-(6-fluoro-2-methyl-1H-benzimidazol-1-yl)pyrimidine-4,6-diamine] | 10 to 100
Cc1ccc(Nc2ccnc(-c3c(C(F)(F)F)nc4ccccn34)n2)cc1 [Cpd 9, N-(4-methylphenyl)-2-[2-(trifluoromethyl)imidazo[1,2-a]pyridin-3-yl]pyrimidin-4-amine] | 1 to 10
Nc1nc(-c2c(CO)nn3ccc(F)cc23)nc(Nc2ccc(OC(F)F)cc2)c1F [Cpd 181, [3-(4-amino-6-{[4-(difluoromethoxy)phenyl]amino}-5-fluoropyrimidin-2-yl)-5-fluoropyrazolo[1,5-a]pyridin-2-yl]methanol] | 10 to 100
COc1ccc(Nc2ccnc(-c3c(C(F)(F)F)nc4ccccn34)n2)cn1 [Cpd 30, N-(6-methoxypyridin-3-yl)-2-[2-(trifluoromethyl)imidazo[1,2-a]pyridin-3-yl]pyrimidin-4-amine] | 100 to 3000
CCc1nc2ccccc2n1-c1nc(N)c(F)c(Nc2ccc(C)cc2)n1 [Cpd 270, 2-(2-ethyl-1H-benzimidazol-1-yl)-5-fluoro-N-(4-methylphenyl)pyrimidine-4,6-diamine] | 1 to 10
COc1ccc2nc(C(F)(F)F)c(-c3nccc(Nc4ccc(C(F)(F)F)cc4)n3)n2c1 [Cpd 48, 2-[6-methoxy-2-(trifluoromethyl)imidazo[1,2-a]pyridin-3-yl]-N-[4-(trifluoromethyl)phenyl]pyrimidin-4-amine] | 100 to 3000
COC(=O)c1ccc(Nc2nc(-n3c(C)nc4ccc(F)cc43)nc(N)c2F)cc1 [Cpd 193, methyl 4-{[6-amino-5-fluoro-2-(6-fluoro-2-methyl-1H-benzimidazol-1-yl)pyrimidin-4-yl]amino}benzoate] | 10 to 100
COc1ccc2nc(C)n(-c3nc(N)c(F)c(Nc4ccc(C(F)(F)F)cc4)n3)c2c1 [Cpd 244, 5-fluoro-2-(6-methoxy-2-methyl-1H-benzimidazol-1-yl)-N-[4-(trifluoromethyl)phenyl]pyrimidine-4,6-diamine] | 10 to 100
Cc1nc2ccccc2n1-c1nc(N)cc(Nc2ccc(C#N)cc2)n1 [Cpd 210, 4-{[6-amino-2-(2-methyl-1H-benzimidazol-1-yl)pyrimidin-4-yl]amino}benzonitrile] | 100 to 3000
Cc1nc2ncc(Cl)cc2n1-c1nc(N)c(F)c(Nc2ccc(OC(F)F)cc2)n1 [Cpd 115, 2-(6-chloro-2-methyl-1H-imidazo[4,5-b]pyridin-1-yl)-N-[4-(difluoromethoxy)phenyl]-5-fluoropyrimidine-4,6-diamine] | 10 to 100
Cc1nc2ncccc2n1-c1nc(N)c(F)c(Nc2ccc(C(F)(F)F)cc2)n1 [Cpd 137, 5-fluoro-2-(2-methyl-1H-imidazo[4,5-b]pyridin-1-yl)-N-[4-(trifluoromethyl]phenyl]pyrimidine-4,6-diamine] | 10 to 100
Cc1ccc(Nc2nc(-n3c(C)nc4cc(F)c(F)cc43)nc(N)c2F)cc1 [Cpd 213, 2-(5,6-difluoro-2-methyl-1H-benzimidazol-1-yl)-5-fluoro-N-(4-methylphenyl)pyrimidine-4,6-diamine] | 1 to 10
CCc1nc2ccccc2n1-c1nc(N)cc(Nc2ccc(OC(F)F)cc2)n1 [Cpd 156, N-[4-(difluoromethoxy)phenyl]-2-(2-ethyl-1H-benzimidazol-1-yl)pyrimidine-4,6-diamine] | 1 to 10
C=Cc1ccc2nc(C)n(-c3nc(N)cc(Nc4ccc(C(F)(F)F)cc4)n3)c2c1 [Cpd 91, 2-(6-ethenyl-2-methyl-1H-benzimidazol-1-yl)-N-[4-(trifluoromethyl)phenyl]pyrimidine-4,6-diamine] | 100 to 3000
Cc1ccc(Nc2ccnc(-c3c(-c4ccccc4)nc4ccc(F)cn34)n2)cc1 [Cpd 27, 2-(6-fluoro-2-phenylimidazo[1,2-a]pyridin-3-yl)-N-(4-methylphenyl)pyrimidin-4-amine] | 100 to 3000
Nc1nc(-n2c(C3CC3)nc3ncc(F)cc32)nc(Nc2ccc(C(F)(F)F)cc2)c1F [Cpd 117, 2-(2-cyclopropyl-6-fluoro-1H-imidazo[4,5-b]pyridin-1-yl)-5-fluoro-N-[4-(trifluoromethyl)phenyl]pyrimidine-4,6-diamine] | 10 to 100
CCc1nc2c(F)cc(F)cc2n1-c1nc(N)c(F)c(Nc2ccc(OC(F)F)cc2)n1 [Cpd 132, N-[4-(difluoromethoxy)phenyl]-2-(2-ethyl-4,6-difluoro-1H-benzimidazol-1-yl)-5-fluoropyrimidine-4,6-diamine] | 10 to 100
Cc1nc2ncc(Cl)cc2n1-c1nc(N)cc(Nc2ccc(C(F)(F)F)cc2)n1 [Cpd 104, 2-(6-chloro-2-methyl-1H-imidazo[4,5-b]pyridin-1-yl)-N-[4-(trifluoromethyl)phenyl]pyrimidine-4,6-diamine] | 10 to 100
COc1ccc(Nc2nc(-n3c(C)nc4cc(C#N)ccc43)nc(N)c2F)cc1 [Cpd 228] | 10 to 100
Cc1nc2c(F)cc(F)cc2n1-c1nc(N)c(F)c(Nc2ccc(C(F)(F)F)cc2)n1 [Cpd 127, 2-(4,6-difluoro-2-methyl-1H-benzimidazol-1-yl)-5-fluoro-N-[4-(trifluoromethyl)phenyl]pyrimidine-4,6-diamine] | 10 to 100
CSc1ccc(Nc2cc(N)nc(-n3c(C)nc4ccccc43)n2)cc1 [Cpd 146, 2-(2-methyl-1H-benzimidazol-1-yl)-N-[4-(methylsulfanyl]phenyl]pyrimidine-4,6-diamine] | 10 to 100
Cc1nc2c(F)cccc2n1-c1nc(N)c(F)c(Nc2ccc(OC(F)F)c(F)c2)n1 [Cpd 136, N-[4-(difluoromethoxy)-3-fluorophenyl]-5-fluoro-2-(4-fluoro-2-methyl-1H-benzimidazol-1-yl)pyrimidine-4,6-diamine] | 10 to 100
Cc1nc2cc(F)c(F)cc2n1-c1nc(N)cc(Nc2ccc(C(F)(F)F)c(F)c2)n1 [Cpd 74, 2-(5,6-difluoro-2-methyl-1H-benzimidazol-1-yl)-N-[3-fluoro-4-(trifluoromethyl)phenyl]pyrimidine-4,6-diamine] | 100 to 3000
COc1ccc2nc(C)n(-c3nc(N)c(F)c(Nc4ccc(OC(F)(F)F)cc4)n3)c2c1 [Cpd 246, 5-fluoro-2-(6-methoxy-2-methyl-1H-benzimidazol-1-yl)-N-[4-(trifluoromethoxy)phenyl]pyrimidine-4,6-diamine] | 10 to 100
